Where a name gives a salt, the structure may show the parent alone.
What was measured:
[1] = Acute toxicity (LD50) of further compounds, determined in the same manner as ACP; format: in vivo; details: same manner as ACP (oral or subcutaneous, mice and rats)
Protocol: For oral administration, a suspension of ACP dispersed in an aqueous solution of 0.5% methylcellulose and 0.4% Tween 80 (nonionic surfactant, manufactured by TOKYO KASEI, Co., Ltd.) was prepared and administered to the animals via a stomach sonde. For subcutaneous administration, a suspension of ACP dispersed in an aqueous physiological saline solution containing 0.5% of carboxymethyl cellulose sodium (hereinafter referred to as "CMC") was prepared and injected to the animals with a syringe.
Further, the acute toxicities (LD50) of […]

[2] = system: IL-1 release from human monocyte; test: Inhibition of IL-1 (IL-1α and IL-1β) release from human monocyte; format: cell-based; details: 3.3 μM; LPS 10 μg/ml, 42 hours
Protocol: Monocyte were isolated from human venous blood by density-gradient centrifugation using a Ficoll-paque solution and obtained the cells having a purity of not less than 95% by purifying with a monocyte-separating plate. After dispersing the cells in a medium, RPMI 1640, containing 10% of FBS, the monocyte were inoculated in a culture dish in a ratio of 10^6 cells/3 ml/well and cultured under an atmosphere containing 5% CO2 at 37° C. for 30 minutes. Then, each 15 μl of DMSO solution of one of ACP, PAL and PAC was added to each well (a final DMSO concentration of 0.5%) and 30 minutes later a lipopolysaccharide (hereinafter referred to as "LPS"), a substance to stimulate IL-1 production, was added at a final LPS concentration of 10 μg/ml and they were cultured for 42 hours. Then, the reacted culture medium was recovered and accompanied cells with the medium were separated by centrifugation and obtained the supernatant free of cell. IL-1α and IL-1β released from the cells were measured by ELISA method in the same manner as in item (i) above.

[3] = system: proteoglycan (PG) release under IL-1α; test: Proteoglycan (PG) release from prelabelled cultured cartilage matrix with addition of IL-1α; format: cell-based; details: for inhibition of PG release under IL-1α: 20 units of IL-1α, 10 μM; for inhibiting activity on PG release (further compounds): concentration not given
Protocol: Further, to a cultured cartilage matrix, in which PG is prelabelled in advance with 1 μCi of Na2^35 SO4, 20 units of IL-1α was added to each group including control group and 10 μM of PAL, 100 μM of PAL or 10 μM of ACP was added to each test group and studied the effect of each compound to the PG release from the cells.

[4] = Acute toxicity (LD50) of PAC in male mice; format: in vivo; details: intraperitoneal
[5] = system: IL-1α production in human synovial cells; test: Inhibition of IL-1α production in human synovial cells; format: cell-based; details: 33 μM; TPA and A 23187 stimulation, 40 hours
Protocol: (§1) Human synovial membrane obtained at an operation was treated with collagenase to obtain synovial cells, which were subcultured several times and inoculated on a 12-well culture dish. On reaching to confluence, the cells were provided to the test described below. The synovial cells produce IL-1 but release only a little amount and accordingly are appropriate cells to study an inhibition or an acceleration of IL-1 intracellular production.
(§2) Each DMSO (dimethylsulfoxide) solution containing one of ACP, PAL and PAC separately in a concentration of 400 times that of the final test and DMSO solution not containing any of the compound as a control, were diluted to 40 times in its volume with a medium containing fetal bovine serum (hereinafter referred to as "FBS") [Ham Medium]. 100 μl of the diluted solution was added to each well and further, 800 μl of the medium [Ham] was added to each well. […] The concentration of TPA and the ionophore in the medium were adjusted so that their final concentration in the well became 0.1 μg/ml and 0.2 μg/ml, respectively and a production of IL-1 was stimulated. Final volume of the liquid (medium) per well was 1 ml/well. After 40 hours of culture, liquid portion was removed from each well and 1 ml of a Ham medium was added to the remaining cells in each well. Freeze-thawing was repeated on the medium containing the cells several times to destroy all the cells in the medium and supernatants containing intracellular substances were obtained by centrifugation. IL-1α and IL-1β in the supernatant were determined by ELISA method using a prescribed enzyme-antibody-complex (manufactured by OHTSUKA SEIYAKU, Co., Ltd.) as intracellular IL-1s. [Refer to ENSHO, vol.

[6] = system: IL-1β production in human synovial cells; test: Inhibition of IL-1β production in human synovial cells; format: cell-based; details: 33 μM; TPA and A 23187 stimulation, 40 hours
Protocol: as §1, §2

[7] = system: IL-1 release from cultured cartilage cells; test: Inhibition of IL-1 release from cultured cartilage cells; format: cell-based, rabbit; details: 3.3 μM; TPA and A 23187 stimulation, 24 hours
Protocol: Cartilages were aseptically taken out from knee and shoulder joints of young rabbit, treated with a Ham medium containing 0.2% collagenase and separated each other into single cells. After washed two times with a Ham medium containing 10% FBS, the cells were dispersed into the Ham medium containing 10% FBS at a concentration of 10^5 cells/ml. […] After 24 hours of cultivation, IL-1 released into each of the supernatants was measured by a bioassay applying an incorporated amount of ^3 H-thymidine (^3 H-TdR) as an index. […] In the Figure, "Intact" means a case TPA and the ionophore were not added and accordingly no stimulation of IL-1 release was given.

[8] = system: proteoglycan (PG) in cultured cartilage cells; test: Synthesis, release and remaining amount of proteoglycan (PG) in cultured cartilage cells; format: cell-based, rat
Protocol: Costal cartilage was aseptically taken out from male SD rats of 4 weeks age, enzymatically treated to separate it into single cells, then inoculated into a 12-well culture dish and cultured under an atmosphere containing 5% CO2 at 37° C. After the chondrocytes had been grown to confluence, 1 to 10 μM of PAL or 10 to 100 μM of PAC was added and three hours later, 2 μCi of Na2^35 SO4 was further added to each well. Twenty four hours later, the synthesis amount in, release amount from and remaining amount of PG in the matrix were determined using amount of ^35 S as an index. […] In the Figures, the PG release in the control was defined as 100%. […] In FIGS. 4(a), 4(b) and 4(c), the released amount of PG means the amount representing the PG degraded in and released from cartilage matrixes, which was calculated on a basis of ^35 S in the culture medium. The remaining amount of PG means the PG not degraded in the matrixes and was also calculated in the same way as above. Sum of the released and the remaining amounts of PG is thought to be a synthesized PG.

Row | Compound | acute toxicities (LD50), compared with ACP [1] | inhibiting activity on PG release (further compounds) [3] | other results
1 | CCCCCCCCCCCC(=O)Oc1ccc(C(OC(=O)CCCCCCCCCCC)OC(=O)CCCCCCCCCCC)cc1OC(=O)CCCCCCCCCCC [3,4-di-n-dodecanoyloxybenzylidene di-n-dodecanoate] | approximately same values | – | inhibition of IL-1 release [2]: significantly inhibit; inhibition of PG release under IL-1α [3]: inhibited the release amount of PG
2 | CC(=O)Oc1ccc(C(=O)O)cc1OC(C)=O [3,4-diacetoxybenzoic acid] | approximately same values | same effects | –
3 | CC(=O)Oc1ccc(C=O)cc1OC(C)=O [3,4-diacetoxybenzaldehyde] | approximately same values | same effects | –
4 | CC(=O)Oc1ccc(C(=O)[O-])cc1OC(C)=O.[Na+] [3,4-diacetoxybenzoic acid sodium salt] | approximately same values | same effects | –
5 | O=C(O)c1ccc(O)c(O)c1 [PAC, 3,4-dihydroxybenzoic acid] | – | same effects | LD50 at 192 h ([4]; mouse, in vivo, ip, observed 8 days): ≥ 400 mg/kg; inhibiting activity of IL-1α production [5]: inhibiting activity of IL-1α only; inhibiting activity of IL-1β production [6]: inhibiting activity of IL-1α only; inhibition of IL-1 release from cartilage cells [7]: inhibit the release of IL-1; effect on PG synthesis ([8]; PAL 1 to 10 μM, PAC 10 to 100 μM, 24 hours): no effect; inhibition of PG release ([8]; PAL 1 to 10 μM, PAC 10 to 100 μM, control release 100%): exhibited inhibiting activities on the PG release; remaining amount of PG in the matrix ([8]; PAL between 1 and 3.3 μM, PAC between 10 and 100 μM): increased in proportion to the adding amount
6 | CCCCCCCCCCCCCCCCCC(=O)Oc1ccc(C(OC(=O)CCCCCCCCCCCCCCCCC)OC(=O)CCCCCCCCCCCCCCCCC)cc1OC(=O)CCCCCCCCCCCCCCCCC [3,4-di-n-octadecanoyloxybenzylidene di-n-octadecanoate] | approximately same values | – | inhibition of IL-1 release [2]: significantly inhibit; inhibition of PG release under IL-1α [3]: inhibited the release amount of PG
7 | CCCCCCCCCCCCCCCCCC(=O)OC(OC(=O)CCCCCCCCCCCCCCCCC)c1ccc(OC(C)=O)c(OC(C)=O)c1 [3,4-diacetoxybenzylidene di-n-octadecanoate] | approximately same values | same effects | –
8 | CCCCCCCCCCCCCC(=O)Oc1ccc(C(OC(=O)CCCCCCCCCCCCC)OC(=O)CCCCCCCCCCCCC)cc1OC(=O)CCCCCCCCCCCCC [3,4-di-n-tetradecanoyloxybenzylidene di-n-tetradecanoate] | approximately same values | same effects | –
9 | CCCCCCCCCCCCCCCC(=O)Oc1ccc(C(OC(=O)CCCCCCCCCCCCCCC)OC(=O)CCCCCCCCCCCCCCC)cc1OC(=O)CCCCCCCCCCCCCCC [3,4-di-n-hexadecanoyloxybenzylidene di-n-hexadecanoate] | approximately same values | same effects | –
10 | CCCCCCCCCCCCCCCCCC(=O)Oc1ccc(C=O)cc1OC(=O)CCCCCCCCCCCCCCCCC [3,4-di-n-octadecanoyloxybenzaldehyde] | approximately same values | same effects | –
11 | CCC(=O)Oc1ccc(C(OC(=O)CC)OC(=O)CC)cc1OC(=O)CC [3,4-di-n-propionyloxybenzylidene di-n-propionate] | approximately same values | – | inhibition of IL-1 release [2]: significantly inhibit; inhibition of PG release under IL-1α [3]: inhibited the release amount of PG
12 | O=C(O)c1ccc(O)c(O)c1 [sodium salt of PAC] | – | – | LD50 value, compared with PAC ([4]; level relative to PAC (not less than 400 mg/kg)): same level of LD50 value
13 | CCCC(=O)Oc1ccc(C(OC(=O)CCC)OC(=O)CCC)cc1OC(=O)CCC [3,4-di-n-butyryloxybenzylidene di-n-butyrate] | approximately same values | same effects | –
14 | O=Cc1ccc(OC(=O)c2ccccc2)c(OC(=O)c2ccccc2)c1 [3,4-dibenzoyloxybenzaldehyde] | approximately same values | same effects | –
15 | CCCCCCCCCCCCCCCCCC(=O)Oc1ccc(C(OC(C)=O)OC(C)=O)cc1OC(=O)CCCCCCCCCCCCCCCCC [3,4-di-n-octadecanoyloxybenzylidene diacetate] | approximately same values | same effects | –
16 | O=C(Oc1ccc(C(OC(=O)c2ccccc2)OC(=O)c2ccccc2)cc1OC(=O)c1ccccc1)c1ccccc1 [3,4-dibenzoyloxybenzylidene dibenzoate] | approximately same values | – | inhibition of IL-1 release [2]: significantly inhibit; inhibition of PG release under IL-1α [3]: inhibited the release amount of PG

— patent publication US4997850A, “Treating agent for osteroarthritis” (Kureha Kagaku Kogyo Kabushiki Kaisha, priority 1989, dated 1991)
